Like-named read-outs stand apart in the source and are kept apart here.
Experiments:
A. thaliana DHDPS = test system: T1, A. thaliana DHDPS; test: DHDPS-DHDPR coupled assay, dose response inhibitor assay; type: biochemical, Arabidopsis thaliana
T1 construct: AtDHDPS|10|0.00008; no borders, domain or tags given
Method: DHDPS enzyme activity was determined using the coupled assay in a Cary 4000 UV/Vis spectrophotometer at 340 nm in 1 cm acrylic cuvettes. A master mix was prepared for each reaction as per Table 1. Reaction mixtures containing enzymes, pyruvate, buffer and NADPH were incubated at 30° C. for 12 mins before the addition of ASA to initiate the reaction. The oxidation of NADPH to NADP^+ was then monitored at 340 nm at 30° C. as a function of time. The initial rate (ΔA340·min^−1) was calculated from the slope of the linear portion of the A340 versus time profile. All experiments were carried out in triplicate. The enzyme kinetic parameters, including KM values, were determined using the Michaelis-Menten equation (Equation 1). Unless otherwise stated, all kinetic data were fitted using the built-in equations in GraphPad Prism.
To determine/C50 values for the inhibitors, A. thaliana DHDPS enzyme activity was measured using the coupled assay (detailed above) in the presence of increasing concentrations of inhibitor. The initial rate was then plotted as a function of the log 10 of the inhibitor concentration and the/C50 determined according to Equation 2.

[1] = test system: human liver cells (HepG2); test: MTT viability assay; conditions: for % viability 1 / % viability 2 / % viability 3: 48 hrs
Method: (§1) Cells were harvested and resuspended in growth media (5-10 ml) to count. Cells were diluted to the appropriate concentration (5×10^3), and seeded into 96-well plates as follows: (a) 50 μl of cells per well, (b) 100 μl of growth media in the Blank wells, (c) 100 μl PBS in outer wells (to prevent dehydration of media from the cells). Cells were incubated overnight at 37° C. (5% CO2).
(§2) Compounds were prepared as serial dilutions in growth media. Each treatment concentration was performed in triplicate. 50 μl/well of prepared compound was added to cells.
(§3) A no treatment triplicate (100% viability) was also included by adding 50 μl of growth media to cells. Plates were returned to the incubator for 48 hrs.
(§4) MTT powder in 1×PBS was prepared at 5 mg/ml and filter sterilised. MTT was added to serum-free media to a final concentration of 1 mg/ml. 100 μl of the MTT solution (1 mg/ml) was added to each well, including 0 μM and blank wells. Plates were incubated at 37° C. in incubator for 3 hrs. Following incubation, the media was removed from wells without disrupting the purple crystals formed. 100 μl of DMSO was added to each well using a multichannel pipette. The plates were shaken on the plate shaker until all the crystals have dissolved. The absorbance was measured at 570 nm using a plate reader. The data was analysed using Microsoft Excel. For each treatment concentration the average was calculated, the blank was subtracted and the cell viability was determined as a percentage of the no treatment control (DMSO vehicle control).

[2] = test system: human kidney cells (HEK293); test: MTT viability assay; conditions: for % Viability Remaining 1 / % Viability Remaining 2 / % Viability Remaining 3: 48 hrs
Method: as §1, §2, §3, §4

[3] = test system: Gram-positive and Gram-negative bacterial species; test: Broth microdilution MIC, panel summary; type: cell-based; conditions: read-out: MIC values
Method: (§5) Assays were carried out by a broth microdilution method using a 96-well plate according to guidelines defined by the European Committee on Antimicrobial Susceptibility Testing as described here. Overnight cultures of strains were grown in tryptic soy broth (TSB) at 37° C. The overnight cultures were diluted to a concentration of 1×10^6 bacteria/ml (OD600=0.01) in TSB media. To each well on 96 well plates, 100 μl of bacterially infected media at a concentration of 1×10^6/ml and compounds at various concentrations were added. An uninfected control (i.e. no bacteria) was also included. The plates were incubated at 37° C. wrapped in parafilm for 20 hrs. The growth was assessed by measuring the absorbance at 600 nm. The minimum inhibitory concentration (MIC) was determined to be the lowest concentration of compound that inhibits visible bacterial growth.

[4] = test system: Pseudomonas aeruginosa PA01; test: Broth microdilution MIC; type: cell-based
Method: as §5

EMRSA-16 = test: Broth microdilution MIC; type: cell-based
Method: as §5

EMRSA-15 = test: Broth microdilution MIC; type: cell-based
Method: as §5

[5] = test system: Klebsiella pneumoniae 13368; test: Broth microdilution MIC; type: cell-based
Method: as §5

[6] = test system: Enterococcus faecium 12204; test: Broth microdilution MIC; type: cell-based
Method: as §5

[7] = test system: Enterococcus faecalis 775; test: Broth microdilution MIC; type: cell-based
Method: as §5

[8] = test system: Acinetobacter baumannii 17978; test: Broth microdilution MIC; type: cell-based
Method: as §5

Klebsiella pneumoniae M6 = test: Broth microdilution MIC; type: cell-based
Method: as §5

[9] = test system: Escherichia coli NCTC12923; test: Broth microdilution MIC; type: cell-based
Method: as §5

[10] = test system: Enterococcus faecalis 12201; test: Broth microdilution MIC; type: cell-based
Method: as §5

[11] = test system: Acinetobacter baumannii AYE; test: Broth microdilution MIC; type: cell-based
Method: as §5

[12] = test system: Pseudomonas aeruginosa 13437; test: Broth microdilution MIC; type: cell-based
Method: as §5

MSSA 9144 = test: Broth microdilution MIC; type: cell-based; conditions: Staphylococcus aureus
Method: as §5

COc1ccc(/C=C2\NC(=O)N(CC(=O)O)C2=O)cc1 [Compound 42, (Z)-2-(4-(4-Methoxybenzylidene)-2,5-dioxoimidazolidin-1-yl)acetic Acid]
IC50 (A. thaliana DHDPS): 66.1 µM | % viability 1 ([1]; HepG2, 12.5 μM): 81.0% | % viability 2 ([1]; HepG2, 12.5 μM): 99.1% | % viability 3 ([1]; HepG2, 12.5 μM): 70.9% | % viability 1 ([1]; HepG2, 25 μM): 81.0% | % viability 2 ([1]; HepG2, 25 μM): 99.1% | % viability 3 ([1]; HepG2, 25 μM): 70.9% | % viability 1 ([1]; HepG2, 50 μM): 88.8% | % viability 2 ([1]; HepG2, 50 μM): 98.3% | % viability 3 ([1]; HepG2, 50 μM): 90.4% | % viability 1 ([1]; HepG2, 100 μM): 88.0% | % viability 2 ([1]; HepG2, 100 μM): 86.0% | % viability 3 ([1]; HepG2, 100 μM): 84.1% | % viability 1 ([1]; HepG2, 200 μM): 98.4% | % viability 2 ([1]; HepG2, 200 μM): 101% | % viability 3 ([1]; HepG2, 200 μM): 82.4% | % viability 1 ([1]; HepG2, 400 μM): 80.9% | % viability 2 ([1]; HepG2, 400 μM): 82.9% | % viability 3 ([1]; HepG2, 400 μM): 82.1% | toxicity to HepG2 cells (in words) ([1]; HepG2, MTT, up to 400 μM (Defensin 100 μM)): effectively nontoxic | % Viability Remaining 1 ([2]; HEK293, 12.5 μM): 104% | % Viability Remaining 2 ([2]; HEK293, 12.5 μM): 93.9% | % Viability Remaining 3 ([2]; HEK293, 12.5 μM): 87.6% | % Viability Remaining 1 ([2]; HEK293, 25 μM): 110% | % Viability Remaining 2 ([2]; HEK293, 25 μM): 93.9% | % Viability Remaining 3 ([2]; HEK293, 25 μM): 87.6% | % Viability Remaining 1 ([2]; HEK293, 50 μM): 80.6% | % Viability Remaining 2 ([2]; HEK293, 50 μM): 94.5% | % Viability Remaining 3 ([2]; HEK293, 50 μM): 98.9% | % Viability Remaining 1 ([2]; HEK293, 100 μM): 110% | % Viability Remaining 2 ([2]; HEK293, 100 μM): 107% | % Viability Remaining 3 ([2]; HEK293, 100 μM): 115% | % Viability Remaining 1 ([2]; HEK293, 200 μM): 94.0% | % Viability Remaining 2 ([2]; HEK293, 200 μM): 99.6% | % Viability Remaining 3 ([2]; HEK293, 200 μM): 94.1% | % Viability Remaining 1 ([2]; HEK293, 400 μM): 105% | % Viability Remaining 2 ([2]; HEK293, 400 μM): 103% | % Viability Remaining 3 ([2]; HEK293, 400 μM): 80.9% | toxicity to HEK293 cells (in words) ([2]; HEK293, MTT, up to 400 μM (Defensin 100 μM)): effectively nontoxic

O=C(O)CN1C(=O)S/C(=C\c2ccc(F)cc2)C1=O [Compound 1, (Z)-2-(5-(4-Fluorobenzylidene)-2,4-dioxothiazolidin-3-yl)acetic Acid]
IC50 (A. thaliana DHDPS): 92.4 µM | MIC [3]: > 64 µg/mL | MIC ([4]; Pseudomonas aeruginosa PA01, replicate 1, read-out: MIC #1): > 64 µg/mL | MIC ([4]; Pseudomonas aeruginosa PA01, replicate 2, read-out: MIC #2): > 64 µg/mL | MIC ([4]; Pseudomonas aeruginosa PA01, replicate 3, read-out: MIC #3): > 64 µg/mL | MIC (EMRSA-16; EMRSA-16, replicate 1, read-out: MIC #1): > 64 µg/mL | MIC (EMRSA-16; EMRSA-16, replicate 2, read-out: MIC #2): > 64 µg/mL | MIC (EMRSA-16; EMRSA-16, replicate 3, read-out: MIC #3): > 64 µg/mL | MIC (EMRSA-15; EMRSA-15, replicate 1, read-out: MIC #1): > 64 µg/mL | MIC (EMRSA-15; EMRSA-15, replicate 2, read-out: MIC #2): > 64 µg/mL | MIC (EMRSA-15; EMRSA-15, replicate 3, read-out: MIC #3): > 64 µg/mL | MIC ([5]; Klebsiella pneumoniae 13368, replicate 1, read-out: MIC #1): > 64 µg/mL | MIC ([5]; Klebsiella pneumoniae 13368, replicate 2, read-out: MIC #2): > 64 µg/mL | MIC ([5]; Klebsiella pneumoniae 13368, replicate 3, read-out: MIC #3): > 64 µg/mL | MIC ([6]; Enterococcus faecium 12204, replicate 1, read-out: MIC #1): > 64 µg/mL | MIC ([6]; Enterococcus faecium 12204, replicate 2, read-out: MIC #2): > 64 µg/mL | MIC ([6]; Enterococcus faecium 12204, replicate 3, read-out: MIC #3): > 64 µg/mL | MIC ([7]; Enterococcus faecalis 775, replicate 1, read-out: MIC #1): > 64 µg/mL | MIC ([7]; Enterococcus faecalis 775, replicate 2, read-out: MIC #2): > 64 µg/mL | MIC ([7]; Enterococcus faecalis 775, replicate 3, read-out: MIC #3): > 64 µg/mL | MIC ([8]; Acinetobacter baumannii 17978, replicate 1, read-out: MIC #1): > 64 µg/mL | MIC ([8]; Acinetobacter baumannii 17978, replicate 2, read-out: MIC #2): > 64 µg/mL | MIC ([8]; Acinetobacter baumannii 17978, replicate 3, read-out: MIC #3): > 64 µg/mL | MIC (Klebsiella pneumoniae M6; Klebsiella pneumoniae M6, replicate 1, read-out: MIC #1): > 64 µg/mL | MIC (Klebsiella pneumoniae M6; Klebsiella pneumoniae M6, replicate 2, read-out: MIC #2): > 64 µg/mL | MIC (Klebsiella pneumoniae M6; Klebsiella pneumoniae M6, replicate 3, read-out: MIC #3): > 64 µg/mL | MIC ([9]; Escherichia coli NCTC12923, replicate 1, read-out: MIC #1): > 64 µg/mL | MIC ([9]; Escherichia coli NCTC12923, replicate 2, read-out: MIC #2): > 64 µg/mL | MIC ([9]; Escherichia coli NCTC12923, replicate 3, read-out: MIC #3): > 64 µg/mL | MIC ([10]; Enterococcus faecalis 12201, replicate 1, read-out: MIC #1): > 64 µg/mL | MIC ([10]; Enterococcus faecalis 12201, replicate 2, read-out: MIC #2): > 64 µg/mL | MIC ([10]; Enterococcus faecalis 12201, replicate 3, read-out: MIC #3): > 64 µg/mL | MIC ([11]; replicate 1, read-out: MIC #1): > 64 µg/mL | MIC ([11]; replicate 2, read-out: MIC #2): > 64 µg/mL | MIC ([11]; replicate 3, read-out: MIC #3): > 64 µg/mL | MIC ([12]; Pseudomonas aeruginosa 13437, replicate 1, read-out: MIC #1): > 64 µg/mL | MIC ([12]; Pseudomonas aeruginosa 13437, replicate 2, read-out: MIC #2): > 64 µg/mL | MIC ([12]; Pseudomonas aeruginosa 13437, replicate 3, read-out: MIC #3): > 64 µg/mL | MIC (MSSA 9144; MSSA 9144, replicate 1, read-out: MIC #1): > 64 µg/mL | MIC (MSSA 9144; MSSA 9144, replicate 2, read-out: MIC #2): > 64 µg/mL | MIC (MSSA 9144; MSSA 9144, replicate 3, read-out: MIC #3): > 64 µg/mL

COc1ccc(/C=C2\SC(=O)N(CC(=O)O)C2=O)cn1 [Compound 37, (Z)-2-(5-((6-Methoxypyridin-3-yl)methylene)-2,4-dioxothiazolidin-3-yl)acetic Acid]
IC50 (A. thaliana DHDPS): 46 µM
